# Experimental data taken from ChEMBL document CHEMBL1201862, “PubChem BioAssay data set” (2004).
#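 Step 1: Grow cells in 96-well plates. Step 2: Expose to compound for 48 hours at 5 concentrations. Step 3: Interpolate endpoints linearly; if unreached, use highest concentration. At the GI50, growth is halved.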 Activity calls are given as the source filed them. Cut-off read from the data, not from the text of the source: active = GI50 up to about 1.1 µM and inactive = higher.
# Tests used:
# Assay in all cases: NCI-60 cell line screen, 48 h
# 786-0 = tested on: 786-0
# A498 = tested on: A498
# A549 = tested on: A549
# ACHN = tested on: ACHN
# BT-549 = tested on: BT-549
# CAKI-1 = tested on: CAKI-1
# CCRF-CEM = tested on: CCRF-CEM
# COLO 205 = tested on: COLO 205
# EKVX = tested on: EKVX
# HCC 2998 = tested on: HCC 2998
# HCT-116 = tested on: HCT-116
# HCT-15 = tested on: HCT-15
# HL-60 = tested on: HL-60
# HOP-62 = tested on: HOP-62
# HOP-92 = tested on: HOP-92
# HT-29 = tested on: HT-29
# Hs-578T = tested on: Hs-578T
# IGROV-1 = tested on: IGROV-1
# K562 = tested on: K562
# KM12 = tested on: KM12
# LOX IMVI = tested on: LOX IMVI
# M14 = tested on: M14
# MCF7 = tested on: MCF7
# MDA-MB-231 = tested on: MDA-MB-231
# MDA-MB-435 = tested on: MDA-MB-435
# MDA-N = tested on: MDA-N
# MOLT-4 = tested on: MOLT-4
# Malme-3M = tested on: Malme-3M
# NCI-H226 = tested on: NCI-H226
# NCI-H23 = tested on: NCI-H23
# NCI-H460 = tested on: NCI-H460
# NCI-H522 = tested on: NCI-H522
# NCI/ADR-RES = tested on: NCI/ADR-RES
# OVCAR-3 = tested on: OVCAR-3
# OVCAR-4 = tested on: OVCAR-4
# OVCAR-5 = tested on: OVCAR-5
# OVCAR-8 = tested on: OVCAR-8
# PC-3 = tested on: PC-3
# RPMI-8226 = tested on: RPMI-8226
# RXF 393 = tested on: RXF 393
# SF-268 = tested on: SF-268
# SF-295 = tested on: SF-295
# SF-539 = tested on: SF-539
# SK-MEL-28 = tested on: SK-MEL-28
# SK-MEL-2 = tested on: SK-MEL-2
# SK-MEL-5 = tested on: SK-MEL-5
# SK-OV-3 = tested on: SK-OV-3
# SN12C = tested on: SN12C
# SNB-19 = tested on: SNB-19
# SNB-75 = tested on: SNB-75
# SR = tested on: SR
# SW-620 = tested on: SW-620
# T47D = tested on: T47D
# TK-10 = tested on: TK-10
# U-251 = tested on: U-251
# UACC-257 = tested on: UACC-257
# UACC-62 = tested on: UACC-62
# UO-31 = tested on: UO-31
# DU-145 = tested on: DU-145
smiles,measurement,setting,value
CN1CCN([C@H]2C[C@H]3[C@@H]4CC=C5C[C@@H](O)CC[C@]5(C)[C@H]4CC[C@]3(C)C2=O)CC1,GI50,786-0,> 100 µM (inactive)
same,GI50,A498,> 100 µM (inactive)
same,GI50,A549,> 100 µM (inactive)
same,GI50,ACHN,> 100 µM (inactive)
same,GI50,BT-549,> 100 µM (inactive)
same,GI50,CAKI-1,> 100 µM (inactive)
same,GI50,CCRF-CEM,> 100 µM (inactive)
same,GI50,COLO 205,> 100 µM (inactive)
same,GI50,EKVX,> 100 µM (inactive)
same,GI50,HCC 2998,> 100 µM (inactive)
same,GI50,HCT-116,> 100 µM (inactive)
same,GI50,HCT-15,> 100 µM
same,GI50,HL-60,31.8 µM (inactive)
same,GI50,HOP-62,> 100 µM (inactive)
same,GI50,HOP-92,> 100 µM (inactive)
same,GI50,HT-29,42.2 µM (inactive)
same,GI50,Hs-578T,> 100 µM (inactive)
same,GI50,IGROV-1,> 100 µM (inactive)
same,GI50,K562,34.3 µM (inactive)
same,GI50,KM12,> 100 µM (inactive)
same,GI50,LOX IMVI,> 100 µM (inactive)
same,GI50,M14,> 100 µM (inactive)
same,GI50,MCF7,> 100 µM (inactive)
same,GI50,MDA-MB-231,> 100 µM (inactive)
same,GI50,MDA-MB-435,> 100 µM (inactive)
same,GI50,MDA-N,> 100 µM (inactive)
same,GI50,MOLT-4,> 100 µM (inactive)
same,GI50,Malme-3M,> 100 µM (inactive)
same,GI50,NCI-H226,> 100 µM (inactive)
same,GI50,NCI-H23,> 100 µM (inactive)
same,GI50,NCI-H460,> 100 µM (inactive)
same,GI50,NCI-H522,> 100 µM (inactive)
same,GI50,NCI/ADR-RES,> 100 µM (inactive)
same,GI50,OVCAR-3,> 100 µM (inactive)
same,GI50,OVCAR-4,> 100 µM (inactive)
same,GI50,OVCAR-5,> 100 µM (inactive)
same,GI50,OVCAR-8,> 100 µM (inactive)
same,GI50,PC-3,> 100 µM (inactive)
same,GI50,RPMI-8226,91 µM (inactive)
same,GI50,RXF 393,> 100 µM (inactive)
same,GI50,SF-268,> 100 µM (inactive)
same,GI50,SF-295,> 100 µM (inactive)
same,GI50,SF-539,62.5 µM (inactive)
same,GI50,SK-MEL-28,> 100 µM (inactive)
same,GI50,SK-MEL-2,> 100 µM (inactive)
same,GI50,SK-MEL-5,> 100 µM (inactive)
same,GI50,SK-OV-3,> 100 µM (inactive)
same,GI50,SN12C,> 100 µM (inactive)
same,GI50,SNB-19,> 100 µM (inactive)
same,GI50,SNB-75,> 100 µM (inactive)
same,GI50,SR,29.4 µM (inactive)
same,GI50,SW-620,> 100 µM (inactive)
same,GI50,T47D,> 100 µM (inactive)
same,GI50,TK-10,> 100 µM (inactive)
same,GI50,U-251,> 100 µM (inactive)
same,GI50,UACC-257,> 100 µM (inactive)
same,GI50,UACC-62,> 100 µM (inactive)
same,GI50,UO-31,> 100 µM (inactive)
O=c1oc2ccccc2c(O)c1C1c2c(c3ccccc3oc2=O)Oc2c1c(=O)oc1ccccc21,GI50,786-0,43.1 µM (inactive)
same,GI50,A498,49.5 µM (inactive)
same,GI50,ACHN,28.4 µM (inactive)
same,GI50,BT-549,27.5 µM (inactive)
same,GI50,CAKI-1,30.3 µM (inactive)
same,GI50,CCRF-CEM,36.5 µM (inactive)
same,GI50,COLO 205,42.3 µM (inactive)
same,GI50,DU-145,53.5 µM (inactive)
same,GI50,EKVX,45 µM (inactive)
same,GI50,HCC 2998,18.7 µM (inactive)
same,GI50,HCT-116,36.6 µM (inactive)
same,GI50,HCT-15,27.9 µM
same,GI50,HOP-62,64.4 µM (inactive)
same,GI50,HOP-92,35.2 µM (inactive)
same,GI50,HT-29,30.2 µM (inactive)
same,GI50,Hs-578T,46.8 µM (inactive)
same,GI50,IGROV-1,35 µM (inactive)
same,GI50,K562,33.7 µM (inactive)
same,GI50,KM12,26.4 µM (inactive)
same,GI50,LOX IMVI,38.5 µM (inactive)
same,GI50,MDA-MB-231,32.4 µM (inactive)
same,GI50,MDA-MB-435,28.7 µM (inactive)
same,GI50,MDA-N,18.9 µM (inactive)
same,GI50,MOLT-4,47.5 µM (inactive)
same,GI50,Malme-3M,> 100 µM (inactive)
same,GI50,NCI-H226,22.4 µM (inactive)
same,GI50,NCI-H23,31.3 µM (inactive)
same,GI50,NCI-H460,17.1 µM (inactive)
same,GI50,NCI-H522,39 µM (inactive)
same,GI50,NCI/ADR-RES,60.7 µM (inactive)
same,GI50,OVCAR-3,61.8 µM (inactive)
same,GI50,OVCAR-4,32.9 µM (inactive)
same,GI50,OVCAR-8,32.1 µM (inactive)
same,GI50,PC-3,50.6 µM (inactive)
same,GI50,RPMI-8226,31.7 µM (inactive)
same,GI50,SF-268,29.4 µM (inactive)
same,GI50,SK-MEL-28,30.8 µM (inactive)
same,GI50,SK-MEL-2,51.6 µM (inactive)
same,GI50,SK-MEL-5,21 µM (inactive)
same,GI50,SN12C,30.1 µM (inactive)
same,GI50,SNB-19,48.5 µM (inactive)
same,GI50,SNB-75,57.1 µM (inactive)
same,GI50,SW-620,38.2 µM (inactive)
same,GI50,T47D,38.4 µM (inactive)
same,GI50,TK-10,51.9 µM (inactive)
same,GI50,U-251,38.1 µM (inactive)
same,GI50,UACC-257,34.8 µM (inactive)
same,GI50,UACC-62,21.4 µM (inactive)
same,GI50,UO-31,19 µM (inactive)
CCN(CC)C(=S)SC [METHYLDIETHYL CARBAMODITHIOATE],GI50,786-0,> 100 µM (inactive)
same,GI50,A498,> 100 µM (inactive)
same,GI50,A549,> 100 µM (inactive)
same,GI50,ACHN,> 100 µM (inactive)
same,GI50,BT-549,> 100 µM (inactive)
same,GI50,CCRF-CEM,> 100 µM (inactive)
same,GI50,COLO 205,> 100 µM (inactive)
same,GI50,DU-145,> 100 µM (inactive)
same,GI50,EKVX,> 100 µM (inactive)
same,GI50,HCC 2998,> 100 µM (inactive)
same,GI50,HCT-116,> 100 µM (inactive)
same,GI50,HCT-15,> 100 µM
same,GI50,HL-60,> 100 µM (inactive)
same,GI50,HOP-62,> 100 µM (inactive)
same,GI50,HOP-92,> 100 µM (inactive)
same,GI50,HT-29,> 100 µM (inactive)
same,GI50,Hs-578T,> 100 µM (inactive)
same,GI50,IGROV-1,> 100 µM (inactive)
same,GI50,K562,> 100 µM (inactive)
same,GI50,LOX IMVI,> 100 µM (inactive)
same,GI50,M14,> 100 µM (inactive)
same,GI50,MCF7,> 100 µM (inactive)
same,GI50,MDA-MB-231,> 100 µM (inactive)
same,GI50,MDA-N,> 100 µM (inactive)
same,GI50,MOLT-4,> 100 µM (inactive)
same,GI50,Malme-3M,> 100 µM (inactive)
same,GI50,NCI-H226,> 100 µM (inactive)
same,GI50,NCI-H23,> 100 µM (inactive)
same,GI50,NCI-H460,> 100 µM (inactive)
same,GI50,NCI-H522,> 100 µM (inactive)
same,GI50,NCI/ADR-RES,> 100 µM (inactive)
same,GI50,OVCAR-3,> 100 µM (inactive)
same,GI50,OVCAR-5,> 100 µM (inactive)
same,GI50,OVCAR-8,> 100 µM (inactive)
same,GI50,PC-3,52.5 µM (inactive)
same,GI50,RPMI-8226,> 100 µM (inactive)
same,GI50,RXF 393,> 100 µM (inactive)
same,GI50,SF-268,> 100 µM (inactive)
same,GI50,SF-295,> 100 µM (inactive)
same,GI50,SF-539,> 100 µM (inactive)
same,GI50,SK-MEL-28,> 100 µM (inactive)
same,GI50,SK-MEL-2,> 100 µM (inactive)
same,GI50,SK-MEL-5,> 100 µM (inactive)
same,GI50,SK-OV-3,> 100 µM (inactive)
same,GI50,SN12C,> 100 µM (inactive)
same,GI50,SNB-19,> 100 µM (inactive)
same,GI50,SNB-75,> 100 µM (inactive)
same,GI50,SW-620,> 100 µM (inactive)
same,GI50,T47D,> 100 µM (inactive)
same,GI50,TK-10,> 100 µM (inactive)
same,GI50,U-251,> 100 µM (inactive)
same,GI50,UACC-257,> 100 µM (inactive)
same,GI50,UACC-62,> 100 µM (inactive)
